Experimental data taken from patent publication EP0088621A2, “Compositions for use in accelerating onset of sleep” (MASSACHUSETTS INSTITUTE OF TECHNOLOGY, priority 1982, dated 1983).

Design: species or system Normal adult volunteers
Conditions: in vivo
Experimental: Normal adult volunteers consumed 1 g of tryptophan; with or without 10 g of glucose; blood samples were assayed for tryptophan, LNAA, and their ratio after various intervals. Control subjects received only the tryptophan. The results are shown in Table I, 1 hour after administration.

increase of the plasma tryptophan/LNAA ratio by glucose: 40-50%
SMILES: OC[C@H]1OC(O)[C@H](O)[C@@H](O)[C@@H]1O (stereo partly shown) [glucose]
